Assay results: US8481551B2, “Gyrase and topoisomerase IV inhibitors” (Vertex Pharmaceuticals Incorporated, priority 2011, dated 2013)
Counter-ions that a name gives are not always drawn. Like-named read-outs stand apart in the source and are kept apart here.

Columns and labels:
Enterobacter cloacae = experiment: Gyrase MIC against Gram negatives, microdilution broth method (Protocol 2); type: cell-based; conditions: 12 isolates tested
Acinetobacter baumannii = experiment: as above; type: cell-based; conditions: for MIC90: Acinetobacter baumannii, 12 isolates tested
Nocardia caviae = experiment: MIC determination procedure for Mycobacterium species (Protocol 4); type: cell-based; conditions: Nocardia otitidiscaviarum
Clostridium perfringens = experiment: microbe, parasite or virus in culture; type: cell-based
Enterococcus faecalis = experiment: Gyrase MIC, microdilution broth method (Protocol 1); conditions: for MIC: ATCC29212
[1] = tested on: Mycobacterium tuberculosis; experiment: Mycobacterium tuberculosis serum shift MIC assay (Protocol 5); type: cell-based; conditions: ATCC 35801 / ERDMAN
Description: Protocol 5. Protocol for Mycobacterium tuberculosis Serum Shift MIC Assay
Media Prep: • 1. […] It was important that all media and supplements were sterilized prior to MICs. • 2. Prepared all media below and inoculated as described in next section. Tested all compounds against Mtb using each media. • a. […] 7H9+0.2% glycerol+2 g/L dextrose+0.85 g/L NaCl+0.003 g/L catalase (0% FBS). • c. 2×7H9+0.2% glycerol+2 g/L dextrose+0.85 g/L NaCl+0.003 g/L catalase combined with equal volume Fetal Bovine Serum (50% FBS).
Inoculum Prep: • 1. […] Typically plates were two to three weeks of age when used for this assay due to the slow growth of this organism in culture. • 2. Vortexed well, then sonicated in water bath for 30 sec providing a suspension of ˜10^8 cells/ml. […] Prepared inoculum in each of the three media formulations by diluting the BBL Prompt suspension 1/200 (for example: transferred 0.2 ml of cells to 40 ml of medium) to obtain a starting cell density of ˜10^6 cells/ml. • 4.
After 24 hours the fluorescence of each well was measured at Excitation 492 nm, Emission 595 nm.
Percent inhibition by a given compound was calculated as follows: Percent inhibition=100−([well fluorescence-average background fluorescence]/[DMSO control−average background fluorescence]×100).

Bacillus subtilis = experiment: Gyrase MIC, microdilution broth method (Protocol 1); type: cell-based
Moraxella catarrhalis = experiment: Gyrase MIC against Gram negatives, microdilution broth method (Protocol 2); type: cell-based; conditions: for MIC90 / MIC Range: Moraxella catarrhalis, 26 isolates tested
Bacillus cereus = experiment: Gyrase MIC, microdilution broth method (Protocol 1); type: cell-based
Peptostreptococcus spp. = experiment: Gyrase MIC, agar dilution method (Protocol 3); type: cell-based; conditions: 11 isolates tested
[2] = Pharmacokinetics, rat IV study; conditions: male Sprague Dawley rats, plasma, analyte as labelled; for AUC: male, Sprague Dawley, rat, iv
[3] = ATCC19606, Acinetobacter baumannii ATCC 19606
[4] = ATCCBAA1710, Acinetobacter baumannii ATCC BAA-1710
[5] = M. tuberculosis Erdman ATCC 35801, read-out: MIC
[6] = M. tuberculosis Erdman ATCC 35801 with Mouse Serum
[7] = ATCC6051, Bacillus subtilis (168) ATCC 6051
[8] = ATCC6638, Bacillus subtilis ATCC 6638
[9] = ATCC25238, Moraxella catarrhalis ATCC 25238
[10] = ATCC49143, Moraxella catarrhalis ATCC 49143
[11] = ATCC10987, Bacillus cereus ATCC 10987
[12] = ATCC14579, Bacillus cereus ATCC 14579
[13] = Compound W 1 mg/kg single IV bolus in D5W
[14] = Compound W 5 mg/kg single IV bolus in D5W
[15] = 1 mg/kg, AUC, Compound W 1 mg/kg single IV bolus in D5W
[16] = 1 mg/kg, AUCextrap, Compound W 1 mg/kg single IV bolus in D5W
[17] = 5 mg/kg, AUC, Compound W 5 mg/kg single IV bolus in D5W
[18] = 5 mg/kg, AUCextrap, Compound W 5 mg/kg single IV bolus in D5W

| SMILES | MIC90 (Enterobacter cloacae) [µg/mL] | MIC (Acinetobacter baumannii; [3]) [µg/mL] | MIC (Acinetobacter baumannii; [4]) [µg/mL] | MIC90 (Acinetobacter baumannii) [µg/mL] | MIC90 (Clostridium perfringens) [µg/mL] | MIC (Enterococcus faecalis) [µg/mL] | MIC [1, 5] [µg/mL] | MIC [1, 6] [µg/mL] | MIC (Bacillus subtilis; [7]) [µg/mL] | MIC (Bacillus subtilis; [8]) [µg/mL] | MIC (Moraxella catarrhalis; [9]) [µg/mL] | MIC (Moraxella catarrhalis; [10]) [µg/mL] | MIC90 (Moraxella catarrhalis) [µg/mL] | MIC Range (Moraxella catarrhalis) | MIC (Bacillus cereus; [11]) [µg/mL] | MIC (Bacillus cereus; [12]) [µg/mL] | MIC90 (Peptostreptococcus spp.) [µg/mL] | Cl_obs [2, 13] [mL/min/kg] | Vss_obs [2, 13] [L/kg] | Cl_obs [2, 14] [mL/min/kg] | also measured |
| --- | --- | --- | --- | --- | --- | --- | --- | --- | --- | --- | --- | --- | --- | --- | --- | --- | --- | --- | --- | --- | --- |
| CCNC(=O)Nc1nc2cc(-c3cnc(C(C)(C)O)nc3)cc([C@H]3CCCO3)c2[nH]1 [Compound 13, methanesulfonic acid salt of 1-ethyl-3-[5-[2-(1-hydroxy-1-methyl-ethyl)pyrimidin-5-yl]-7-[(2R)-tetrahydrofuran-2-yl]-1H-benzimidazol-2-yl]urea] | > 8 | > 16 | > 16 | > 8 | 0.5 | 0.081 | 0.045 | 2 | > 8 | > 8 | 0.071 | 0.04 | 0.12 | 0.015 to 0.12 µg/mL | 0.5 | 0.5 | > 16 |  |  |  | MIC (Nocardia caviae; Nocardia caviae 2497, Protocol 4, read-out: MIC): 2 µg/mL; MIC90 (Enterococcus faecalis): 0.25 µg/mL; MIC Range (Enterococcus faecalis; 34 isolates tested, Protocol 1): 0.03 to 0.25 µg/mL |
| CCNC(=O)Nc1nc2cc(-c3cnc(C(C)(C)O)nc3)c(F)c([C@H]3CCCO3)c2[nH]1 [Compound 23, 1-ethyl-3-[6-fluoro-5-[2-(1-hydroxy-1-methyl-ethyl)pyrimidin-5-yl]-7-[(2R)-tetrahydrofuran-2-yl]-1H-benzimidazol-2-yl]urea] |  |  |  |  |  |  |  |  |  |  |  |  |  |  |  |  |  | 54.9 | 3.8 | 27.3 | Vss_obs [2, 14]: 4.08 L/kg; AUC [2, 15]: 306 ng·h/mL; AUC [2, 16]: 310 ng·h/mL; AUC [2, 17]: 3040 ng·h/mL; AUC [2, 18]: 3060 ng·h/mL |
| CCNC(=O)Nc1nc2cc(-c3cnc(C(C)(C)O)nc3)c(F)c([C@H]3CCCO3)c2[nH]1 [Compound 23A, methanesulfonic acid salt of 1-ethyl-3-[6-fluoro-5-[2-(1-hydroxy-1-methyl-ethyl)pyrimidin-5-yl]-7-[(2R)-tetrahydrofuran-2-yl]-1H-benzimidazol-2-yl]urea] | > 8 | 8 | 6 | > 8 | 0.5 |  | 0.03 | 0.5 | 4 | 2 | ≤ 0.016 | ≤ 0.016 | 0.03 | ≦0.004-0.03^ μg/ml | 0.031 | 0.031 | > 16 |  |  |  | MIC (Nocardia caviae): 0.125 µg/mL; MIC Range (Clostridium perfringens; 12 isolates tested, Protocol 3): 0.12 to 0.5 µg/mL |
| CCNC(=O)Nc1nc2cc(-c3cnc(C(C)(C)OP(=O)([O-])[O-])nc3)c(F)c([C@H]3CCCO3)c2[nH]1.[Na+].[Na+] [Compound W, disodium (R)-2-(5-(2-(3-ethylureido)-6-fluoro-7-(tetrahydrofuran-2-yl)-1H-benzo[d]imidazol-5-yl)pyrimidin-2-yl)propan-2-yl phosphate] |  |  |  |  |  | 1 |  |  |  |  |  |  |  |  |  |  |  | 46.7 | 0.38 | 84.6 | Vss_obs [2, 14]: 5.8 L/kg; AUC [2, 15]: 416 ng·h/mL; AUC [2, 16]: 419 ng·h/mL; AUC [2, 17]: 1110 ng·h/mL; AUC [2, 18]: 1120 ng·h/mL |
